Data on one compound can be found in PMC10110893, “[…]-derived synthetic cannabinoids inhibit T-type calcium channels with divergent effects on seizures in rodent models of epilepsy” (Frontiers in Physiology, 2023).

Read-outs that look alike come from different tables or passages of the source.

Data set [1] concerns 6 Hz-induced seizures in Swiss mice. In words: 6 Hz seizure model in mice. It counts as in vivo, mouse. How it is done: Swiss outbred mice used in 6 Hz seizure experiments were purchased from Australian Resources Centre (stock ARC(S); Canning Vale, Australia) and single housed for 1 week prior to experimentation to prevent fighting.
6 Hz seizures were induced in Swiss male mice (9–10 weeks old) using an Ugo Basile electroconvulsive therapy unit (Model 57,800; Gemonio, Italy). Mice were pre-treated with vehicle, SB2193 (10 mg/kg, 30 mg/kg, 100 mg/kg) or valproic acid (300 mg/kg) via i.p. injection 15 min before seizure induction based on the time-to-peak brain concentration determined in pharmacokinetic studies. […] A drop of 0.5% tetracaine was applied to both corneas immediately following the i.p. injection to provide local anaesthesia. Immediately prior to the electrical stimulation, saline was applied to each cornea to ensure electrical conductivity. Corneal electroshocks were administered at 44 mA, 6 Hz, 3 s shock duration, with a […] rectangular pulse width. Mice were shocked and scored by an observer blinded to treatment for the presence of twitching of the vibrissae, stun, myoclonus, rearing, forelimb clonus, and/or Straub tail. […] The ED50 for SB2193 was calculated using computer-assisted log-probit linear regression analysis ([Litchfield and Wilcoxon, 1949]). A χ^2 test was performed to assess statistical significance.

Data set [2] in a line: Pharmacokinetics in mouse plasma and brain after single i.p. injection. The following applies: both sexes, 10 mg/kg i.p.; for AUC: wildtype F1, mouse, in vivo, 10 mg/kg. Format: in vivo. How it is done: SB2193 and SB2193F were prepared in ethanol-Tween 80%–0.9% saline (1:1:18 ratio) and valproic acid in 0.9% saline. All doses were completely soluble in this vehicle except for the 100 mg/kg SB2193 dose, which was a suspension.
Male and female wildtype F1 mice aged 21–28 days postnatal received a single i. p. injection of 10 mg/kg SB2193 or SB2193F. At selected timepoints (15–240 min), mice were anesthetised with isoflurane, blood was collected via cardiac puncture and whole brains were harvested. Brains were snap frozen on dry ice, and blood plasma was isolated via centrifugation (4,000 g for 10 min, 4^○C). Brain and plasma samples were stored at −80°C until assayed.
Plasma samples (50 μL) were spiked with an internal standard (diazepam) and vortexed with 1 M NaOH (50 μL) and methyl tert-butyl ether (1 mL) to achieve protein precipitation. The organic layer was isolated by centrifugation (4,000 g for 3 min) before being frozen for 60 min at −80°C, evaporated to dryness using N2, and reconstituted in 30% acetonitrile and 0.1% formic acid in water for analysis. Brain hemispheres were homogenised in a 10x w/v 1:1 methanol-water solution using a Biospec Tissue-Tearor (Bartlesville, United States) and centrifuged at 20,000 g for 30 min at 4°C. Supernatant (100 μL) was collected and prepared following the same method as plasma.
SB2193 and SB2193F concentrations in brain and plasma samples were assessed by high performance liquid chromatography-tandem mass spectrometry (HPLC-MS/MS) using a Shimadzu Nexera liquid chromatograph coupled with a Shimadzu 8,030 triple quadrupole mass spectrometer (Kyoto, Japan). Samples were run through a Zorbax C18 HPLC Column equipped with a Zorbax Eclipse XDB-C8 guard column (2.1 × 50 mm, 3.5 μm particle size; Agilent, Santa Clara, United States) with an injection volume of 10 μL using a gradient elution. Mobile phases of acetonitrile and 0.1% formic acid in water were delivered at a flow rate of 0.6 mL/min over 4.16 min, with a stepwise adjustment of mobile phase concentration gradient over time to optimise ion separation.
Quantification was achieved by comparing experimental samples to plasma and brain standards prepared with known concentrations of SB2193 or SB2193F. Samples were quantified against a 7-point standard curve (R ^2 > 0.98 for both analytes).
Concentrations of SB2193 or SB2193F in plasma and brain at each timepoint were averaged and concentration-time curves were generated using GraphPad Prism. Pharmacokinetic parameters were calculated using non-compartmental analysis. The linear-log trapezoidal method was used to calculate drug exposure (area under the curve, AUC) using equations previously described ([Hawkins et al., 2017]).

The target of a further data set is T1, human Cav3.3 (Homo sapiens, UniProt Q9P0X4).
T1 construct: expressed in transfected cells; host or cells: HEK293 FlpIn T-Rex cells (Invitrogen)
In words: FLIPR calcium flux assay, Cav3.3. It counts as cell-based. How it is done: HEK293 FlpIn T-Rex cells (Invitrogen, CA, United States) stably expressing human Cav3.1, Cav3.2, or Cav3.3 were maintained in Dulbecco’s Modified Eagle Medium (DMEM) supplemented with 10% foetal bovine serum (FBS), 1% penicillin-streptomycin (P/S) at 37°C, and 5% CO2 as previously described ([Bladen et al., 2021]; [Udoh et al., 2022]). Hygromycin (80 μg/mL) and blasticidin (15 μg/mL) were used as selection antibiotics and cells were passaged at 80% confluency. For experiments, cells were resuspended in Leibovitz’s L-15 media (containing 1% FBS, 1% P/S, 15 mM glucose, 2 μg/mL tetracycline), plated in black, clear-bottomed poly-D-lysine-coated 96-well plates (90 μL) (Corning, NY, United States), and incubated overnight in ambient air at 37°C. All compounds tested in cellular assays were prepared as stock solutions in DMSO and final DMSO concentration was 0.1%.
Intracellular calcium flux was measured using a fluorometric imaging plate-reader (FLIPR) Calcium 5 Assay Kit and FlexStation 3 Microplate Reader (Molecular Devices, San Jose, United States). Calcium 5 dye (90 μL) prepared in low potassium HBSS (Thermo Fisher Scientific) containing (in mM) 145 NaCl, 22 HEPES, 0.338 Na2HPO4, 4.17 NaHCO3, 0.441 KH2PO4, 0.407 MgSO4, 0.493 MgCl2, 1.26 CaCl2, 5.56 glucose, and […] with pH 7.4 was applied to each well and incubated for 1 h at 37°C, ambient air prior to testing.
Fluorescence readings were taken at 2 s intervals (λ excitation = 485 nm, λ emission = 525 nm). Following 2 min baseline reading, 20 μL of SB2193, SB2193F, or NNC 55-0396 (10 nM—10 μM) was added to cells and read for 5 min, then CaCl2 (10 mM) was added and read for 3 min. Baseline fluorescence averaged over the 20 s interval preceding CaCl2 addition was subtracted and normalized to the vehicle response. Changes in fluorescence were measured in relative fluorescence units (RFU). All compounds were assayed in ≥ five independent experiments (n = 5–8) performed in duplicate. Order of compound addition and location on the plate were varied between replicates. Data was fit to a four-parameter non-linear dose-response curve using GraphPad Prism 8.2.0 software (La Jolla, United States) to determine IC50 values.
For orientation: A change in cytosolic calcium serves as a functional read-out for many receptors and channels.

Setting [3] is: wildtype F1, in vivo, ip, mouse plasma.

T1 sequence (Q9P0X4 whole entry): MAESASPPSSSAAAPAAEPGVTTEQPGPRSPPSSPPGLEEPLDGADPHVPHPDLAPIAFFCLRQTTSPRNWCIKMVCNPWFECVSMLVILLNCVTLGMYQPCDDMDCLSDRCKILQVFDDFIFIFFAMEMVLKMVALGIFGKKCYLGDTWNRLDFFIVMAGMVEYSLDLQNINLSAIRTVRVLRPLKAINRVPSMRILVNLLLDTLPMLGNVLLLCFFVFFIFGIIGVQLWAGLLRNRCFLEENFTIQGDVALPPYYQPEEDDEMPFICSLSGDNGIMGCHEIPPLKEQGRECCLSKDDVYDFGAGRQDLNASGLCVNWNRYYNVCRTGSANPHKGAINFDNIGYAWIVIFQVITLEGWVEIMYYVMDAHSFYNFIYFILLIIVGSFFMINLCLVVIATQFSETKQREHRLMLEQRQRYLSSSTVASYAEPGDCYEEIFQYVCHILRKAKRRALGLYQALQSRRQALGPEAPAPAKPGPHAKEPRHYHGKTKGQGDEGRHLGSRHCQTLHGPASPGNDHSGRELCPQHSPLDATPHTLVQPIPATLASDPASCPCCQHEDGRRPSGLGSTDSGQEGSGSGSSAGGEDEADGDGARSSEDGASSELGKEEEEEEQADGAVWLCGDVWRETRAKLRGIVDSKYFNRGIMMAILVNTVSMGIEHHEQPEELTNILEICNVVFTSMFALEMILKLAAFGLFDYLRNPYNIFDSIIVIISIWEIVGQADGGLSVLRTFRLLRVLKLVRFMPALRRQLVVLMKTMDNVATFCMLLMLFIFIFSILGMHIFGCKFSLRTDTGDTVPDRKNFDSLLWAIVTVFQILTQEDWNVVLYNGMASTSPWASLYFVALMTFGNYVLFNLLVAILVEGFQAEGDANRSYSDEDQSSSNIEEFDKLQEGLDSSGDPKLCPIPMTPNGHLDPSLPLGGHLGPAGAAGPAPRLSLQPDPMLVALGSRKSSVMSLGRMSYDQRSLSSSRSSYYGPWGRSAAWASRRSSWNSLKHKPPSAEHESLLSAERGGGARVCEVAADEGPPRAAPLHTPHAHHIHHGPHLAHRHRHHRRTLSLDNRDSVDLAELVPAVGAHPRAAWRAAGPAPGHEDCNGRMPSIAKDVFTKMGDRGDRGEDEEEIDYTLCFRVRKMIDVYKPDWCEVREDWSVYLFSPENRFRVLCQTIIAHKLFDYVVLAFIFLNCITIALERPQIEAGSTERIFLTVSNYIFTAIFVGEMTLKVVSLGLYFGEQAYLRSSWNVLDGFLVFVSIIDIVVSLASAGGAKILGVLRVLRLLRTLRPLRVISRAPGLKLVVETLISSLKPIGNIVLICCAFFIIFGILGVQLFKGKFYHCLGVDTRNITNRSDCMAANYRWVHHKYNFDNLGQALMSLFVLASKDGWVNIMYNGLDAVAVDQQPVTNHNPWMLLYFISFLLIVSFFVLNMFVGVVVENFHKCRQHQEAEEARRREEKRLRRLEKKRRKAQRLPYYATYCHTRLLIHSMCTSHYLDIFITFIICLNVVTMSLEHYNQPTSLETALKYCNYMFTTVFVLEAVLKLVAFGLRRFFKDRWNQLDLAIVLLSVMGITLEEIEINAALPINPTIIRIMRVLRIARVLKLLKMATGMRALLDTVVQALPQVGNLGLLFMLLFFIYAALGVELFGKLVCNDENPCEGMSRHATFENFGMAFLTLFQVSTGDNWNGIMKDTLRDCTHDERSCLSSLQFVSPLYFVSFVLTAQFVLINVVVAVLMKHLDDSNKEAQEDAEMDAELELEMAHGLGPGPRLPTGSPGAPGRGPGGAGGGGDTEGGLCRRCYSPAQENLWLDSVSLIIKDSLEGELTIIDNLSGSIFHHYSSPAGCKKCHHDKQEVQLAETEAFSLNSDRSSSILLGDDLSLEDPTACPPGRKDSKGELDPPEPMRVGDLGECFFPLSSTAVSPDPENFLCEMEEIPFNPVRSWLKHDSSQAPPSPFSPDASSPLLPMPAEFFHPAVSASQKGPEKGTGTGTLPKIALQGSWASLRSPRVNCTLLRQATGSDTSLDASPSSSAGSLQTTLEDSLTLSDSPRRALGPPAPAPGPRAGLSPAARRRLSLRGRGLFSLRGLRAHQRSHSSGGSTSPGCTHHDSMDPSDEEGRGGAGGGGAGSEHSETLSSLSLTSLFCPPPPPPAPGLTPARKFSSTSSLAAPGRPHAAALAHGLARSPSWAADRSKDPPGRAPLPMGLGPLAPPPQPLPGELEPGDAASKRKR

As to `CCCCCn1cc(C(=O)N2CCN(C(=O)OC(C)(C)C)CC2)c2ccccc21` [SB2193], the “percentage of mice protected from seizures compared to vehicle” value in data set [1] (100 mg/kg i.p., 15 min before 6 Hz 44 mA stimulation, n = 10) is “significantly increased”. Moreover, in data set [1] (Mus musculus, ip, log-probit analysis, estimated), the median effective dose (ED50) (commonly the dose that gives a 50% effect, or the effect in half of the subjects) was around 120 mg/kg. Besides, the Tmax (as a rule, the time at which the peak concentration occurs) in data set [2] (setting [3]) was at most 15 min; in data set [2] (wildtype F1, ip, mouse brain), at most 15 min. In addition, the half-life – broadly, the time needed for the level to fall by half in the phase considered – came to 29 min in data set [2] (setting [3]) and 28 min in data set [2] (wildtype F1, ip, mouse brain). Besides, the Cmax in data set [2] (wildtype F1, in vivo, ip, mouse plasma, read-out: Cmax) worked out at 750 ± 50 nM; in data set [2] (wildtype F1, in vivo, ip, mouse plasma, read-out: Cmax (μg/mL)), 0.3 ± 0.02 µg/mL; in data set [2] (wildtype F1, ip, mouse brain, read-out: Cmax) it was 3000 ± 1000 nM; in data set [2] (wildtype F1, ip, mouse brain, read-out: Cmax (μg/mL)), 1.2 ± 0.4 µg/mL. Also, the Kp in data set [2] (wildtype F1, in vivo, ip, mouse, read-out: brain-plasma ratio) was determined as 2.7. Moreover, the AUC (as a rule, the area under the concentration-time curve, a measure of exposure) was 583 ng·h/mL in data set [2] (ip, mouse brain, brain concentration converted assuming density of 1 g/mL) and 217 ng·h/mL in data set [2] (ip, mouse plasma). Moreover, the IC50 (usually the point on the concentration scale where inhibition reaches its midpoint) on human Cav3.3 is 5.4 µM.
